Test results from patent US8748418B2, “1,4-oxazepines as BACE1 and/or BACE2 inhibitors” (Hoffmann-La Roche Inc., priority 2011, dated 2014).

Assays:
BACE1 = BACE1 (Homo sapiens (Human), UniProt P56817); test: Cellular Aβ-lowering assay (Aβ40 ELISA in HEK293 cells expressing human APP695); format: cell-based; conditions: HEK293 cells stably transfected with human APP wt (APP695), Aβ40 in supernatant after 18-20 hrs
Experimental: Cellular Aβ-Lowering Assay:
Human HEK293 cells which are stably transfected with a vector expressing a cDNA of the human APP wt gene (APP695) were used to assess the potency of the compounds in a cellular assay. The cells were seeded in 96-well microtiter plates in cell culture medium (Iscove, plus 10% (v/v) fetal bovine serum, glutamine, penicillin/streptomycin) to about 80% confluence and the compounds were added at a 10× concentration in 1/10 volume of medium without FCS containing 8% DMSO (final concentration of DMSO was kept at 0.8% v/v). After 18-20 hrs incubation at 37° C. and 5% CO2 in a humidified incubator the culture supernatant was harvested for the determination of Aβ40 concentrations. 96 well ELISA plates (e.g., Nunc MaxiSorb) were coated with monoclonal antibody which specifically recognize the C-terminal end of Aβ40 (Brockhaus et al., NeuroReport 9, 1481-1486; 1998). After blocking of non-specific binding sites with e.g. 1% BSA and washing, the culture supernatants were added in suitable dilutions together with a horseradish peroxidase-coupled Aβ detection antibody (e.g., antibody 4G8, Senetek, Maryland Heights, Mo.) and incubated for 5 to 7 hrs. Subsequently the wells of the microtiter plate were washed extensively with Tris-buffered saline containing 0.05% Tween 20 and the assay was developed with tetramethylbenzidine/H2O2 in citric acid buffer. After stopping the reaction with one volume 1NH2SO4 the reaction was measured in an ELISA reader at 450 nm wavelength. The concentrations of Aβ in the culture supernatants were calculated from a standard curve obtained with known amounts of pure Aβ peptide.

BACE2 = BACE2 (Homo sapiens (Human), UniProt Q9Y5Z0); test: Immunofluorescence Resonance Energy Transfer (FRET) assay for BACE2 inhibition; format: biochemical; conditions: TMEM27-based peptide substrate 5 μM, pH 4.5
BACE2, sequence (Q9Y5Z0 63-473): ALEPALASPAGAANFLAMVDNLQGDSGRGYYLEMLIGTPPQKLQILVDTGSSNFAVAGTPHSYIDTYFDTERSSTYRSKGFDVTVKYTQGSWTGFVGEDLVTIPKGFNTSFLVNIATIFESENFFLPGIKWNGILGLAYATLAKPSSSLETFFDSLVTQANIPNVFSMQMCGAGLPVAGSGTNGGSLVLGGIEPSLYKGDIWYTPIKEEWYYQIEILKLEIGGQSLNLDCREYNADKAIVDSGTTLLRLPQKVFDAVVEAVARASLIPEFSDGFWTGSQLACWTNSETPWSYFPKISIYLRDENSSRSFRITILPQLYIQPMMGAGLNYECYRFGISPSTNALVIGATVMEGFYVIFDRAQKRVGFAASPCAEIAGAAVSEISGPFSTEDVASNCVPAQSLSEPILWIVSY
Experimental: Immunofluorescence Resonance Energy Transfer (FRET) Assay for BACE2 Inhibition:
BACE2 enzyme ectodomain (derived from plasmid “pET17b-T7-hu proBACE2”) was prepared as described in Ostermann et al., “Crystal Structure of Human BACE2 in Complex with a Hydroxyethylamine Transition-state Inhibitor”, Journal of Molecular Biology 2006, 355, 249-261. The pro-enzyme was stored at 4° C. at a concentration of 70 μg/ml.
The FRET assay was performed essentially as described in Grüninger-Leitch et al., Journal of Biological Chemistry (2002) 277(7) 4687-93 (“Substrate and inhibitor profile of BACE (beta-secretase) and comparison with other mammalian aspartic proteases”). In summary, a peptide is designed that is cleaved by the protease. The peptide is labelled with dabcyl at the N terminus and Lucifer Yellow at the C-terminus, such that for an intact peptide the Lucifer Yellow fluorescence is quenched by the dabcyl. When the peptide is cut by BACE2, the quenching is removed and a fluorescent signal is generated.
The assay was performed as described in Grueninger et al. 2002 at pH 4.5 using a substrate concentration of 5 μM. A FRET peptide based on the TMEM27 sequence was devised. dabcyl-[…]-LucY (SEQ ID NO: 1).
The assay readout is the initial rate of change of fluorescence intensity giving a relative measure of BACE2 activity. Small values correspond to high inhibition and larger values to low inhibition. […] IC50 values were determined using these assay values generated for a range of inhibitor concentrations and the curve fitting software XLfit (IDBS) using the Sigmoidal Dose-Response Model.

BACE1, sequence (P56817 46-501): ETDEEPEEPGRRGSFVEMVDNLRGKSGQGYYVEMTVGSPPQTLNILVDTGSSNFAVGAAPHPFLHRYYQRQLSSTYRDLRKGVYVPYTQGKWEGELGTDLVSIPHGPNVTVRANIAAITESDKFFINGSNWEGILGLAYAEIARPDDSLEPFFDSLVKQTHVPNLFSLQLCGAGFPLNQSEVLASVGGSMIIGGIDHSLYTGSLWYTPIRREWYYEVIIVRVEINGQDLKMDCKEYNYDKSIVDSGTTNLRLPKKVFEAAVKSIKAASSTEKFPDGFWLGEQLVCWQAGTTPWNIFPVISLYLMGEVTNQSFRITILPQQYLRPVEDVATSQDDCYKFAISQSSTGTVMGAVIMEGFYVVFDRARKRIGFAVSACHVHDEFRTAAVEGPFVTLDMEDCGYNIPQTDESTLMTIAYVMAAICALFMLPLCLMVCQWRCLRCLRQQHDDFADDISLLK

Row | IC50 (BACE1) | IC50 (BACE2) | Compound
1 | 1900 nM | 170 nM | CC1(C)OCC(N)=N[C@](C)(c2cc(N[C@H]3CCc4cc(C#N)cnc43)c(F)cc2F)C1(F)F [Example 20, (S)-7-[5-((R)-3-Amino-6,6-difluoro-5,7,7-trimethyl-2,5,6,7-tetrahydro-[1,4]oxazepin-5-yl)-2,4-difluoro-phenylamino]-6,7-dihydro-5H-[1]pyrindine-3-carbonitrile]
2 | 70 nM | 24 nM | C[C@]1(c2cc(NC3CCc4cc(Cl)cnc43)ccc2F)N=C(N)COC[C@@H]1F (stereo partly drawn) [Example 1, [3-((5R,6R)-3-Amino-6-fluoro-5-methyl-2,5,6,7-tetrahydro-[1,4]oxazepin-5-yl)-4-fluoro-phenyl]-(3-chloro-6,7-dihydro-5H-[1]pyrindin-7-yl)-amine]
3 | 71 nM | 28 nM | CC1(C)OCC(N)=N[C@](C)(c2cc(NC3CCc4cc(Cl)cnc43)ccc2F)C1(F)F (stereo partly drawn) [Example 14, [3-((R)-3-Amino-6,6-difluoro-5,7,7-trimethyl-2,5,6,7-tetrahydro-[1,4]oxazepin-5-yl)-4-fluoro-phenyl]-(3-chloro-6,7-dihydro-5H-[1]pyrindin-7-yl)-amine]
4 | 410 nM | 1630 nM | COc1ccc(Nc2ccc(F)c([C@@]3(C)N=C(N)COC(C)(C)C3(F)F)c2)cn1 [Example 25, (R)-6,6-Difluoro-5-[2-fluoro-5-(6-methoxy-pyridin-3-ylamino)-phenyl]-5,7,7-trimethyl-2,5,6,7-tetrahydro-[1,4]oxazepin-3-ylamine]
